From article PMC9143450, “Oxonitrogenated Derivatives of Eremophilans and Eudesmans: Antiproliferative and Anti-Trypanosoma cruzi Activity” (Molecules, 2022)

Key:
[1] = Cytotoxicity on primary cell culture (flow cytometry, PI); format: cell-based; settings: Balb/c, mouse, primary splenocytes (spleen cells), ± SD, read-out: Cytotoxic activity on spleen cells (CC50)
Protocol: (§1) The cytotoxicity of the natural sesquiterpenes (1–3) and derivatives (4–19) was determined on primary cell cultures (splenocytes obtained from Balb/c mouse). […] Derivatives of tessaric acid have shown an improvement in CC50 values in comparison with the natural sesquiterpene 1. […] All the derivatives synthesized from alcohol ilicic (compounds 10–19) were more toxic to mammalian cells than the natural compound (3).
(§2) The cytotoxicity of the compounds was evaluated on splenocytes obtained from Balb/c mouse (1.5 × 10^5) and incubated with different drug dilutions (5–200 μg/mL) as previously described. Cell death was determined by flow cytometry using a BD FACSaria II cytometer. Cells incubated only with drug vehicle were used as 100% viability control, and death percentage was calculated according to the following formula: Death%=1−(%PI^−cells)drug−treated/(%PI^−cells)100% viability control × 100
(§3) The concentration capable of causing 50% cell death (CC50) was determined using a non-linear regression approach.

[2] = tested on: splenocytes obtained from Balb/c mouse; assay: as above; format: cell-based; settings: ± SD, read-out: Cytotoxic activity on spleen cells (CC50)
Protocol: as §1, §2, §3

HBL-100 = assay: Antiproliferative SRB assay (NCI protocol), HBL-100; format: cell-based, human; settings: for GI50: Homo sapiens, HBL-100 (breast), 48 h drug exposure, SRB, ± SD
Protocol: (§4) In vitro antiproliferative activity was evaluated using the protocol of the National Cancer Institute (NCI) after 48 h of drug exposure using the sulforhodamine B (SRB) assay.
(§5) The following human solid tumor cell lines were used in this study: HBL-100 (breast), HeLa (cervix), SW1573 (non-small cell lung), T-47D (breast), A549 (lung), and WiDr (colon). These cell lines were a kind gift from Prof. G. J. Peters (VU Medical Center, Amsterdam, The Netherlands). Cells were maintained in 25 cm^2 culture flasks in RPMI 1640 supplemented with 5% heat-inactivated fetal calf serum and 2 mM L-glutamine in a 37 °C, 5% CO2, 95% humidified air incubator. Exponentially growing cells were trypsinized and resuspended in antibiotic containing medium (100 units penicillin G and 0.1 mg of streptomycin per mL). Single cell suspensions displaying > 97% viability by trypan blue dye exclusion test were subsequently counted. After counting, dilutions were made to give the appropriate cell densities for inoculation onto 96-well microtiter plates. Cells were inoculated in a volume of 100 μL per well at densities of 5000 (WiDr and T-47D), and 2500 (A549, HeLa, SW1573 and HBL-100) cells per well, based on their doubling times.
(§6) Chemosensitivity tests were performed using the SRB assay of the NCI with slight modifications. Briefly, pure compounds were initially dissolved in DMSO at 400 times the desired final maximum test concentration. Control cells were exposed to an equivalent concentration of DMSO (0.25% v/v, negative control). Each agent was tested in triplicates at different dilutions in the range 1–100 μM. Drug treatment started on day 1 after plating. Drug incubation periods were 48 h, after which cells were precipitated with 25 μL of ice-cold 50% (w/v) trichloroacetic acid and fixed for 60 min at 4 °C. Then, the SRB assay was performed. The optical density (OD) of each well was measured at 530 nm, using BioTek’s PowerWave XS Absorbance Microplate Reader. Values were corrected for background OD from wells containing only culture medium. The percentage growth (PG) was calculated with respect to untreated control cells (C) at each level of drug concentrations based on the difference in OD at the start time (T0) and at the end of drug exposure (T), according to NCI formulas. Therefore, if T is greater than or equal to T0, the calculation is 100 × ((T − T0)/(C − T0)). If T is lower than T0, denoting cell death, the calculation is 100 × ((T − T0)/(T0)). The effect is defined as the growth percentage, where 50% growth inhibition (GI50) represents the concentration at which PG is +50. Based on these calculations, a PG value of 0 corresponds to the number of cells present at the beginning of drug exposure, while negative PG values denote net cell death.

T-47D = assay: Antiproliferative SRB assay (NCI protocol), T-47D; format: cell-based, human; settings: for GI50: Homo sapiens, T47D, T-47D (breast), 48 h drug exposure, SRB, ± SD
Protocol: as §4, §5, §6

HeLa = assay: Antiproliferative SRB assay (NCI protocol), HeLa; format: cell-based, human; settings: for GI50: Homo sapiens, HeLa (cervix), 48 h drug exposure, SRB, ± SD
Protocol: as §4, §5, §6

[3] = tested on: HeLa, T-47D, WiDr, A549, HBL-100, and SW1573 cell lines; assay: Antiproliferative SRB assay, whole panel of human solid tumor cell lines; format: cell-based
Protocol: as §4, §5, §6

[4] = tested on: Trypanosoma cruzi epimastigotes (RA strain); assay: In vitro anti-Trypanosoma cruzi assay ((3H) thymidine uptake); format: cell-based; settings: for IC50: epimastigotes (RA strain), ± SD
Protocol: Trypanosoma cruzi epimastigotes (RA strain, from discrete typing unit (DTU) VI) were grown in a biphasic medium. Cultures were maintained by weekly passages at 28 °C [18].
The growth inhibition of T. cruzi epimastigotes was evaluated by a (^3H) thymidine uptake assay as previously described. Natural sesquiterpenes and derivatives were evaluated at concentrations ranging from 1.5 to 50 µg/mL. Benznidazole (Active Pharmaceutical Ingredient) was used as positive control (Elea). The percentage of inhibition was calculated as 100 = {((cpm of treated parasites)/(cpm of untreated parasites)) × 100}.
Figure 5 Effect of the natural sesquiterpene tessaric acid (1), ilicic acid (2), and ilicic alcohol (3) and their derivatives on T. cruzi. Epimastigotes (RA strain) were cultured in the presence of the compounds (50–1.5 µg/mL). Determinations were performed by triplicate. The results are expressed as the mean ± SD. (A) Effect of tessaric acid and derivatives on epimastigotes; (B) Effect of ilicic acid and derivatives on epimastigotes; (C) Effect of ilicic alcohol and derivatives on epimastigotes.

WiDr = assay: Antiproliferative SRB assay (NCI protocol), WiDr; format: cell-based, human; settings: for GI50: Homo sapiens, WiDr (colon), 48 h drug exposure, SRB, ± SD
Protocol: as §4, §5, §6

SW1573 = assay: Antiproliferative SRB assay (NCI protocol), SW1573; format: cell-based, human; settings: for GI50: Homo sapiens, SW1573 (non-small cell lung), 48 h drug exposure, SRB, ± SD
Protocol: as §4, §5, §6

A549 = assay: Antiproliferative SRB assay (NCI protocol), A549; format: cell-based, human
Protocol: as §4, §5, §6

Row | IC50 ([4]; Trypanosoma cruzi) [µM] | GI50 ([3]; Homo sapiens, minimal to maximal GI50 across the cell lines tested, 48 h, SRB, read-out: GI50 values, range over all cell lines tested) [µM] | IC50 [4] [µM] | SMILES | CC50 [1] [µM] | CC50 [2] [µM] | GI50 (HBL-100) [µM] | GI50 (T-47D) [µM] | GI50 (HeLa) [µM] | Antiproliferative activity (in words) ([3]; solid tumor cell lines evaluated) | Trypanocidal activity (in words) ([4]; T. cruzi) | GI50 (WiDr) [µM] | GI50 (SW1573) [µM] | Selectivity index (SI) on tumor cells (A549; CC50 splenocytes / GI50 A549) | GI50 (A549; Homo sapiens, A549 (lung), 48 h drug exposure, SRB, ± SD) [µM] | Selectivity index (SI) on tumor cells (HBL-100; CC50 splenocytes / GI50 HBL-100) | Selectivity index (SI) on tumor cells (T-47D; CC50 splenocytes / GI50 T-47D) | Selectivity index (SI) on tumor cells (HeLa; CC50 splenocytes / GI50 HeLa) | Selectivity Index on T. cruzi epimastigotes ([4]; CC50 splenocytes / IC50 epimastigotes) | Selectivity index (SI) on tumor cells (WiDr; CC50 splenocytes / GI50 WiDr) | Selectivity index (SI) on tumor cells (SW1573; CC50 splenocytes / GI50 SW1573)
1 | > 201 | – | – | C=C(C(=O)O)[C@@H]1CCC2=CC(=O)C[C@H](C)[C@@]2(C)C1 [Compound 1, tessaric acid] | > 329 | 329 | > 100 | > 100 | > 100 | did not show antiproliferative activity | nor trypanocidal activity | > 100 | > 100 | – | – | – | – | – | – | – | –
2 | 9.3 | 17 to 64 | 4.7 | C=C(C(=O)N(Cc1ccccc1)C(C)(C)C(=O)NCc1ccccc1)[C@@H]1CCC2=CC(=O)C[C@H](C)[C@@]2(C)C1 [Compound 7] | 38.1 | – | 41 | 22 | 19 | – | – | 37 | 30 | 1.4 | 27 | 0.9 | 1.7 | 2.0 | 8.0 | 1.0 | 1.3
